Source: patent publication US12448433B2, “Human ApoB100 epitopes, methods and uses for modulating inflammatory responses, and treating adverse cardiovascular events, disease and atherosclerosis” (LA JOLLA INSTITUTE FOR ALLERGY AND IMMUNOLOGY, priority 2015, dated 2025)

Assays:
DPB1*02:01 = assay: Peptide binding to HLA-DP allele, competition assay; set-up: species or system human
Text: (§1) Peptide binding to MHC-II requires anchor residues in certain positions and thus can be predicted using computer algorithms. Affinity can be measured experimentally using a competition assay (1). Both are excellent screening tools. However, affinity must be measured separately for each MHC-II allele. Humans express molecules encoded in four different MHC-II loci, denominated HLA-DRB1, DRB3/4/5, DP and DQ. Allelic variation is large, and most people are heterozygous at each locus, thus expressing up to 8 relevant MHC-II alleles. CD4 T cell responses strictly require that the antigenic peptide binds to the relevant MHC-II.
(§2) To identify peptides that could potentially be used in human patients, 30 peptides were screened for binding to 26 HLA alleles by competition assay.

DPB1*05:01 = assay: as above; set-up: species or system human
Text: as §1, §2

DPB1*14:01 = assay: as above; set-up: species or system human
Text: as §1, §2

DQB1*06:02 = assay: Peptide binding to HLA-DQ allele, competition assay; set-up: species or system human
Text: as §1, §2

DRB3*02:02 = DRB3*02:02 (Homo sapiens, UniProt P01903+P79483, A212P/D57E/F66Y/L67A/R103Q/R218S/R40L/S89Y/T80R/V86D/Y55F/Y59H); assay: Peptide binding to HLA-DR allele, competition assay
Text: as §1, §2

DRB4*01:01 = DRB4*01:01 (Homo sapiens, UniProt P01903+P13762, G164S); assay: as above
Text: as §1, §2

DPB1*04:02 = assay: Peptide binding to HLA-DP allele, competition assay; set-up: species or system human
Text: as §1, §2

DPB1*04:01 = molecular target: T1, DPB1*04:01 (Homo sapiens, UniProt P04440); assay: as above
T1 sequence (P04440 30-258): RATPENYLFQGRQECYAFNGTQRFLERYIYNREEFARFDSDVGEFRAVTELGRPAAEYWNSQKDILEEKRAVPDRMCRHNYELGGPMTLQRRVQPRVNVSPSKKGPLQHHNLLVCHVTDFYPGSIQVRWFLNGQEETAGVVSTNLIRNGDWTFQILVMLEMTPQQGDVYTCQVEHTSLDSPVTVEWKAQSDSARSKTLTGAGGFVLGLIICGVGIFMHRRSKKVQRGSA
T1 sequence (P20036 29-260 partner): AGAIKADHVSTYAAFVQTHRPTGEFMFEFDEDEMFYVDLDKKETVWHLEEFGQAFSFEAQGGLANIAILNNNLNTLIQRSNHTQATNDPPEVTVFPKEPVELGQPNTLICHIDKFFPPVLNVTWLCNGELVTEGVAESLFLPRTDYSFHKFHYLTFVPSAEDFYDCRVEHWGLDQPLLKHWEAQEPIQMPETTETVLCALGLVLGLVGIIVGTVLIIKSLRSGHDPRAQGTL
Text: as §1, §2

DRB1*04:01 = DRB1*04:01 (Homo sapiens, UniProt P01903+P01911, A100K/A169T/F76Y/I96L/K127E/L162R/M171V/N62H/P40V/Q125Y/R42H/S133A/S149N/S66Y/V115G/V209L/W38E); assay: Peptide binding to HLA-DR allele, competition assay
Text: as §1, §2

HLA-DRB1*01:01 = HLA-DRB1*01:01 (Homo sapiens, UniProt P01903+P01911, A100R/D57E/F55L/F60I/F76Y/I96L/L162R/M171V/P40L/Q125E/R42F/V115G/Y59C); assay: as above
Text: as §1, §2

DQB1*05:01 = assay: Peptide binding to HLA-DQ allele, competition assay; set-up: species or system human
Text: as §1, §2

DPB1*03:01 = assay: Peptide binding to HLA-DP allele, competition assay; set-up: species or system human
Text: as §1, §2

DRB1*09:01 = DRB1*09:01 (Homo sapiens, UniProt P01903+P01911, A100R/A103E/D57H/D86V/F55Y/F60I/F76Y/I96F/K127E/L162R/M171V/P40D/Q125H/Q99R/R33Q/R42F/S133A/S66N/T210M/V115G/W38K/Y107V/Y59G/Y89S); assay: Peptide binding to HLA-DR allele, competition assay
Text: as §1, §2

atherosclerotic plaque = assay: Peptide immunization in atherosclerosis model (ApoE−/− mice on western diet); type: in vivo, mouse; settings: immunization in CFA and 4×IFA
DRB5*01:01 = DRB5*01:01 (Homo sapiens, UniProt P01903+Q30154); assay: Peptide binding to HLA-DR allele, competition assay
Text: as §1, §2

Molecule	IC50 (DPB1*02:01)	IC50 (DPB1*05:01)	IC50 (DPB1*14:01)	IC50 (DQB1*06:02)	IC50 (DRB3*02:02)	IC50 (DRB4*01:01)	IC50 (DPB1*04:02)	IC50 (DPB1*04:01)	IC50 (DRB1*04:01)	IC50 (HLA-DRB1*01:01)	IC50 (DQB1*05:01)	IC50 (DPB1*03:01)	IC50 (DRB1*09:01)	IC50 (DRB5*01:01)	atherosclerotic plaque in the aortic root by serial sections (atherosclerotic plaque)	atherosclerotic plaque in the whole aorta by en face staining (atherosclerotic plaque)
CSCC[C@H](NC(=O)[C@H](CC(C)C)NC(=O)[C@H](Cc1ccc(O)cc1)NC(=O)[C@H](C)NC(=O)[C@H](C)NC(=O)[C@H](CC(C)C)NC(=O)[C@H](CCCNC(=N)N)NC(=O)[C@H](CCCCN)NC(=O)[C@@H](N)CC(=O)O)C(=O)N[C@@H](CC(C)C)C(=O)N[C@@H](CCSC)C(=O)N[C@@H](CCCNC(=N)N)C(=O)N[C@@H](CO)C(=O)N1CCC[C@H]1C(=O)N[C@@H](CO)C(=O)O [Peptide 3563.0004]	1680 nM	4.1 nM	102 nM	13 nM		12 nM	23 nM	372 nM	7.1 nM		53 nM	26 nM	74 nM			
ovalbumin															not	not
CC[C@H](C)[C@H](NC(=O)[C@@H](NC(=O)[C@@H](N)CC(C)C)[C@@H](C)CC)C(=O)N[C@@H](CC(N)=O)C(=O)N[C@@H](Cc1c[nH]c2ccccc12)C(=O)N[C@@H](CC(C)C)C(=O)N[C@@H](CCC(N)=O)C(=O)N[C@@H](CCC(=O)O)C(=O)N[C@@H](C)C(=O)N[C@@H](CC(C)C)C(=O)N[C@@H](CO)C(=O)N[C@@H](CO)C(=O)N[C@@H](C)C(=O)N[C@@H](CO)C(=O)N[C@@H](CC(C)C)C(=O)O [Peptide 3563.0015]	16300 nM		9550 nM	1950 nM		12 nM	2050 nM	6190 nM								
CC[C@H](C)[C@H](NC(=O)[C@H](CC(C)C)NC(=O)[C@H](CO)NC(=O)[C@@H](NC(=O)[C@@H](NC(=O)[C@@H](N)CCCCN)[C@@H](C)CC)C(C)C)C(=O)N[C@@H](CCCCN)C(=O)N[C@@H](CC(N)=O)C(=O)N[C@@H](CC(C)C)C(=O)N[C@@H](CC(C)C)C(=O)N[C@H](C(=O)N[C@@H](C)C(=O)N[C@@H](CC(C)C)C(=O)N[C@@H](CCCCN)C(=O)N[C@@H](CC(=O)O)C(=O)O)C(C)C [Peptide 3563.0028]	657 nM		1800 nM	1460 nM			155 nM	78 nM			124 nM			14 nM		
CSCC[C@H](NC(=O)[C@@H](NC(=O)[C@H](Cc1ccccc1)NC(=O)[C@@H]1CCCN1C(=O)[C@H](C)NC(=O)[C@H](CCSC)NC(=O)[C@@H](NC(=O)[C@H](CO)NC(=O)[C@H](CCCNC(=N)N)NC(=O)[C@H](Cc1ccccc1)NC(=O)[C@@H](NC(=O)[C@H](CC(N)=O)NC(=O)[C@H](CO)NC(=O)[C@H](Cc1ccccc1)NC(=O)[C@@H](N)Cc1c[nH]cn1)C(C)C)C(C)C)[C@@H](C)O)C(=O)O [Peptide 3563.0010]		94 nM	799 nM								5570 nM	8 nM				

The remaining molecules from weak to strong by IC50 (DPB1*02:01), led by results:

IC50 (DPB1*02:01)	IC50 (DPB1*05:01)	IC50 (DPB1*14:01)	IC50 (DQB1*06:02)	IC50 (DRB3*02:02)	IC50 (DRB4*01:01)	IC50 (DPB1*04:02)	IC50 (DPB1*04:01)	IC50 (DRB1*04:01)	IC50 (HLA-DRB1*01:01)	IC50 (DQB1*05:01)	IC50 (DPB1*03:01)	IC50 (DRB1*09:01)	IC50 (DRB5*01:01)	Molecule	atherosclerotic plaque in the aortic root by serial sections (atherosclerotic plaque)	atherosclerotic plaque in the whole aorta by en face staining (atherosclerotic plaque)
456 nM	424 nM	6510 nM	495 nM										57 nM	CC[C@H](C)[C@H](NC(=O)[C@H](CCCCN)NC(=O)CN)C(=O)N[C@@H](CC(=O)O)C(=O)N[C@@H](Cc1ccccc1)C(=O)N[C@@H](CC(C)C)C(=O)N[C@@H](CC(N)=O)C(=O)N[C@@H](CC(N)=O)C(=O)N[C@@H](Cc1ccc(O)cc1)C(=O)N[C@@H](C)C(=O)N[C@@H](CC(C)C)C(=O)N[C@@H](Cc1ccccc1)C(=O)N[C@@H](CC(C)C)C(=O)N[C@@H](CO)C(=O)N1CCC[C@H]1C(=O)O [Peptide 3563.0019]		
128 nM		1860 nM	617 nM	110 nM			89 nM							CC[C@H](C)[C@H](NC(=O)[C@H](CC(C)C)NC(=O)[C@H](CCCCN)NC(=O)[C@H](CO)NC(=O)CNC(=O)[C@@H](N)C(C)C)C(=O)N[C@H](C(=O)N[C@@H](C)C(=O)N[C@@H](CCSC)C(=O)N[C@@H](CO)C(=O)N[C@@H](CO)C(=O)N[C@@H](Cc1c[nH]c2ccccc12)C(=O)N[C@@H](CC(C)C)C(=O)N[C@@H](CCC(N)=O)C(=O)N[C@@H](CCCCN)C(=O)O)C(C)C [Peptide 3563.0008]		
96 nM	32 nM		5900 nM			8.6 nM	215 nM			4760 nM				CC[C@H](C)[C@H](NC(=O)[C@H](CC(C)C)NC(=O)[C@@H](N)Cc1ccccc1)C(=O)N[C@@H](Cc1ccc(O)cc1)C(=O)N[C@H](C(=O)N[C@H](C(=O)N[C@@H](CCC(=O)O)C(=O)N[C@@H](CC(C)C)C(=O)N[C@@H](CC(C)C)C(=O)N[C@@H](CCCCN)C(=O)N[C@@H](CCCCN)C(=O)N[C@@H](CC(C)C)C(=O)N[C@@H](CCC(N)=O)C(=O)N[C@@H](CO)C(=O)N[C@H](C(=O)O)[C@@H](C)O)[C@@H](C)O)[C@@H](C)CC [Peptide 3563.0030]		
86 nM	39400 nM				94 nM	586 nM	191 nM	55 nM	46 nM					CC(C)C[C@H](NC(=O)[C@H](CCC(N)=O)NC(=O)[C@H](C)NC(=O)[C@H](CC(N)=O)NC(=O)[C@H](C)NC(=O)[C@H](CCC(N)=O)NC(=O)[C@H](Cc1ccccc1)NC(=O)[C@H](CC(=O)O)NC(=O)[C@H](Cc1ccccc1)NC(=O)[C@H](CC(N)=O)NC(=O)[C@H](CC(C)C)NC(=O)[C@@H](NC(=O)[C@H](CCC(=O)O)NC(=O)[C@@H](N)CC(C)C)C(C)C)C(=O)N[C@@H](CO)C(=O)O [Peptide 3563.0017]		
61 nM	4610 nM	2070 nM	6140 nM	3.3 nM	3.3 nM									CC[C@H](C)[C@H](NC(=O)[C@H](CC(N)=O)NC(=O)[C@H](CCCCN)NC(=O)[C@H](CC(C)C)NC(=O)[C@H](Cc1ccccc1)NC(=O)[C@H](CCCNC(=N)N)NC(=O)[C@H](CC(C)C)NC(=O)[C@H](Cc1c[nH]cn1)NC(=O)CNC(=O)[C@@H](N)CCC(=O)O)C(=O)N[C@H](C(=O)N[C@@H](CC(C)C)C(=O)N1CCC[C@H]1C(=O)N[C@H](C(=O)N[C@@H](Cc1ccc(O)cc1)C(=O)O)C(C)C)[C@@H](C)CC [Peptide 3563.0021]		
58 nM	818 nM	12200 nM	13600 nM			148 nM	7 nM			3.7 nM				CC[C@H](C)[C@H](NC(=O)[C@H](CC(C)C)NC(=O)[C@H](CC(N)=O)NC(=O)[C@@H](NC(=O)[C@@H](NC(=O)[C@H](Cc1ccccc1)NC(=O)[C@H](Cc1c[nH]cn1)NC(=O)[C@H](CCCCN)NC(=O)[C@@H](NC(=O)[C@@H](N)Cc1c[nH]cn1)C(C)C)C(C)C)[C@@H](C)CC)C(=O)NCC(=O)N[C@@H](CC(=O)O)C(=O)N[C@@H](Cc1ccccc1)C(=O)N[C@@H](CCC(=O)O)C(=O)N[C@H](C(=O)O)C(C)C [Peptide 3563.0014]		
